From ChEMBL document CHEMBL1201862, “PubChem BioAssay data set” (2004) come the findings set out here.

Common to all, as to experiment: NCI tumour cell line growth inhibition, 48 h
For experiment [1], the system named is CAKI-1.
For experiment [2], the system named is NCI-H522.
The test system of experiment [3] is SF-268.
Experiment [4] relates to SK-MEL-28.
Experiment [5] relates to UACC-257.
For experiment [6], the system named is HCC 2998.
Experiment [7] deals with SNB-19.
Experiment [8] concerns UACC-62.
In experiment [9] the test system is UO-31.
Experiment [10] has as its system MOLT-4.
In experiment [11] the test system is SN12C.
Experiment [12] has as its system OVCAR-5.
Experiment [13] deals with K562.
Experiment [14] deals with HOP-92.
The test system of experiment [15] is SNB-75.
Experiment [16] concerns TK-10.
The subject of experiment [17] is CCRF-CEM.
For experiment [18], the system named is SF-295.
Experiment [19] has as its system MDA-MB-435.
Experiment [20] relates to OVCAR-3.

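Five compound concentrations were applied to cells in 96-well plates for 48 hours; endpoints were derived by simple linear interpolation of the resulting dose-response curve. GI50 marks 50% less growth.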 Activity calls are given as the source filed them. Cut-off read from the data, not from the text of the source: active = GI50 up to about 1.1 µM and inactive = higher.

Turning to `CCn1c(=O)c2c3ccc(OC)cc3[nH]c2c2ccc(OC)cc21`, the GI50 in [1] is 55.2 µM (inactive); in experiment [2], 56.1 µM (inactive); in experiment [3] it was 62.2 µM (inactive); in [4], 63.1 µM (inactive); in [5] it was 71.3 µM (inactive); in experiment [6], 21.2 µM (inactive). For the same compound, the GI50 in [7] was > 100 µM (inactive); in [8] it was 63.2 µM (inactive); in experiment [9], 47.9 µM (inactive); in experiment [10], 22.6 µM (inactive); in experiment [11], > 100 µM (inactive); in experiment [12], > 100 µM (inactive). Also, the GI50 in experiment [13] is 25.7 µM (inactive); in experiment [14], > 100 µM (inactive); in [15], 19.8 µM (inactive); in experiment [16], > 100 µM (inactive); in experiment [17] it was 29.2 µM (inactive); in experiment [18] it was 67.1 µM (inactive). Further, the GI50 is > 100 µM (inactive) in [19] and 37.5 µM (inactive) in experiment [20].

For the compound `COc1c(O)c(OC)c2oc(-c3ccc(O)c(O)c3)c(OC)c(=O)c2c1O`, the GI50 in experiment [1] was 26.9 µM (inactive); in experiment [2], 10.5 µM (inactive); in [3] it was 3.52 µM (inactive); in experiment [4] it was 18.7 µM (inactive); in experiment [5], 24 µM (inactive); in [6] it was 29.3 µM (inactive). For the same compound, the GI50 is 53.8 µM (inactive) in experiment [7]; 7.52 µM (inactive) in experiment [8]; 28.1 µM (inactive) in experiment [9]; 28.4 µM (inactive) in experiment [10]; 56.9 µM (inactive) in [11]; 38.8 µM (inactive) in [12]. The GI50 in experiment [13] is 18.5 µM (inactive); in [14] it was 30.5 µM (inactive); in experiment [15], 3.62 µM (inactive); in experiment [16] it was 30.5 µM (inactive); in experiment [17], 23.9 µM (inactive); in experiment [18] it was 39.3 µM (inactive). In addition, the GI50 in [19] was 3.13 µM (inactive); in experiment [20] it was 2.85 µM (inactive).

Consider `Clc1ccc(-c2nnc3sc4nc5ccccc5c-4nn23)c(Cl)c1`, for which the GI50 was 34.7 µM (inactive) in [1]; 26.2 µM (inactive) in experiment [2]; 33.7 µM (inactive) in experiment [3]; 43.9 µM (inactive) in [4]; 38.5 µM (inactive) in [5]; 28.7 µM (inactive) in [6]. Further, the GI50 is 49.4 µM (inactive) in [7]; 33.5 µM (inactive) in experiment [8]; 62.4 µM (inactive) in experiment [9]; 36.8 µM (inactive) in experiment [10]; 50.6 µM (inactive) in experiment [11]; 50.6 µM (inactive) in [12]. Also, the GI50 in [13] is 31.8 µM (inactive); in experiment [14], 19.1 µM (inactive); in [15], 71 µM (inactive); in experiment [16], 55.2 µM (inactive); in experiment [17], 36.5 µM (inactive); in experiment [18] it was 36.2 µM (inactive). The results for the GI50 in [19] and in experiment [20] were 32.6 µM (inactive) and 29 µM (inactive), respectively.

As to `O=C(CN1CCN(Cc2ccccc2)CC1)c1ccc2[nH]c(=O)oc2c1`, the GI50 is > 100 µM (inactive) in experiment [1]; 74.5 µM (inactive) in experiment [2]; > 100 µM (inactive) in [3]; > 100 µM (inactive) in experiment [4]; > 100 µM (inactive) in [5]; > 100 µM (inactive) in experiment [6]. Moreover, the GI50 in experiment [7] is > 100 µM (inactive); in experiment [8], > 100 µM (inactive); in experiment [9] it was 60.7 µM (inactive); in experiment [10] it was > 100 µM (inactive); in experiment [11], > 100 µM (inactive); in experiment [12] it was > 100 µM (inactive). For the same compound, the GI50 in experiment [13] was > 100 µM (inactive); in experiment [14], 53.1 µM (inactive); in [15] it was > 41.3 µM (inactive); in [16], > 100 µM (inactive); in [17], > 100 µM (inactive); in [18], > 100 µM (inactive). For the same compound, the GI50 was > 30.5 µM (inactive) in experiment [19] and > 100 µM (inactive) in experiment [20].

Take `CCOP(=O)(OCC)C(C)(CC)NC` (stereo not given): the GI50 in [1], in [2], in [3], in [4], in [5] and in experiment [6] was > 100 µM (inactive) in each case. In addition, the GI50 in experiment [7], in [8], in experiment [9], in [10], in experiment [11] and in experiment [12] was > 100 µM (inactive) in each case. The GI50 in experiment [13] was > 100 µM (inactive); in experiment [14], > 100 µM (inactive); in experiment [15], > 100 µM (inactive); in experiment [16] it was > 100 µM (inactive); in [17], 0.935 µM (active); in experiment [18], > 100 µM (inactive). Besides, the GI50 in experiment [19] and in [20] was > 100 µM (inactive) throughout.

Turning to `Oc1cc(-c2ccccc2Cl)nc2cc3c(cc12)OCO3`, the GI50 is 0.0573 µM (active) in experiment [1]; 0.0653 µM (active) in experiment [2]; 1.64 µM (inactive) in experiment [3]; 0.0638 µM (active) in [4]; 0.443 µM (active) in experiment [5]; 0.144 µM (active) in experiment [6]. Besides, the GI50 in experiment [7] is 0.144 µM (active); in experiment [8], 0.0574 µM (active); in experiment [9], 0.224 µM (active); in experiment [10] it was 0.123 µM (active); in [11], 0.261 µM (active); in experiment [12], 1.09 µM (active). Moreover, the GI50 in experiment [13] is 0.0399 µM (active); in [14], 0.102 µM (active); in experiment [15] it was 30.7 µM (inactive); in experiment [16], 0.731 µM (active); in [17], 0.0422 µM (active); in [18] it was 0.107 µM (active). Also, the figures for the GI50 in experiment [19] and in experiment [20] were 0.0146 µM (active) and 0.0608 µM (active), respectively.

For `O=C1/C(=C/c2ccc(O)cc2)CCC1CNc1ccc(Cl)cc1` (stereo not given), the GI50 is 1.55 µM (inactive) in experiment [1]; 0.552 µM (active) in experiment [2]; 3.2 µM (inactive) in [3]; 9.95 µM (inactive) in experiment [4]; 3.05 µM (inactive) in experiment [5]; 3.93 µM (inactive) in experiment [6]. Also, the GI50 was 15.2 µM (inactive) in experiment [7]; 0.367 µM (active) in [8]; 3.01 µM (inactive) in experiment [9]; 1.71 µM (inactive) in experiment [10]; 3.94 µM (inactive) in experiment [11]; 10.1 µM (inactive) in [12]. For the same compound, the GI50 in [13] was 0.25 µM (active); in experiment [14], 14.7 µM (inactive); in experiment [15], 15.6 µM (inactive); in experiment [16], 1.72 µM (inactive); in experiment [17], 0.624 µM (active); in experiment [18] it was 2.88 µM (inactive). Also, the GI50 was 3.61 µM (inactive) in experiment [19] and 2.28 µM (inactive) in [20].

As for `O=[N+]([O-])c1ccc(S(=O)(=O)N=Ic2ccccc2)cc1`, the GI50 in experiment [1], in experiment [2], in experiment [3], in [4], in [5] and in experiment [6] was > 100 µM (inactive) throughout. For the same compound, the GI50 in experiment [7], in experiment [8], in [9], in experiment [10], in [11] and in experiment [12] was > 100 µM (inactive) throughout. Further, the GI50 in experiment [13], in [14], in experiment [15], in experiment [16], in [17] and in experiment [18] was > 100 µM (inactive) each time. The GI50 in experiment [19] and in [20] was > 100 µM (inactive) each time.

`NCC(O)CNC(=O)c1ccc(-c2ccc(-c3ccc(C(=O)NCC(O)CN)cc3)o2)cc1` (stereo not given): the GI50 was 81.7 µM (inactive) in [1]; 33.3 µM (inactive) in experiment [2]; 28.2 µM (inactive) in experiment [3]; > 100 µM (inactive) in experiment [4]; > 100 µM (inactive) in experiment [5]; 25.1 µM (inactive) in [6]. The GI50 in experiment [7] is 22 µM (inactive); in experiment [8], 41.8 µM (inactive); in experiment [9], 49.2 µM (inactive); in experiment [10], > 100 µM (inactive); in experiment [11] it was 25.1 µM (inactive); in experiment [12] it was > 100 µM (inactive). In addition, the GI50 in experiment [13] was > 100 µM (inactive); in experiment [14] it was 22.2 µM (inactive); in [15] it was 25.8 µM (inactive); in experiment [16], 18 µM (inactive); in experiment [17] it was > 100 µM (inactive); in experiment [18] it was 23.5 µM (inactive). For the same compound, the GI50 in experiment [19] is > 100 µM (inactive); in [20] it was 21.4 µM (inactive).

Turning to `CC(C)=CCC/C(C)=C/CC/C(C)=C/CC/C(C=O)=C/CC/C(C)=C\CC/C(C)=C/CC/C(C)=C/CC/C(C)=C/CC1=CC(=O)C=CC1=O`, the GI50 in experiment [1] is 33 µM (inactive); in [2], 14.9 µM (inactive); in [3] it was > 100 µM (inactive); in experiment [4], > 100 µM (inactive); in experiment [5], 48 µM (inactive); in experiment [6] it was > 100 µM (inactive). The GI50 in [7] is > 100 µM (inactive); in experiment [8] it was 21.1 µM (inactive); in experiment [9] it was > 100 µM (inactive); in experiment [10], 55.5 µM (inactive); in experiment [11], > 100 µM (inactive); in experiment [12], > 100 µM (inactive). The GI50 was > 100 µM (inactive) in experiment [13]; > 100 µM (inactive) in [14]; 38.1 µM (inactive) in [15]; > 100 µM (inactive) in experiment [16]; 72.8 µM (inactive) in experiment [17]; 91.4 µM (inactive) in [18]. Also, the GI50 in experiment [19] is 56.4 µM (inactive); in experiment [20] it was 54.2 µM (inactive).
